Earlier results, collected in US20160317662A1, “STABLE ORAL PHARMACEUTICAL COMPOSITION” (H[…].A., priority 2013, published 2016).

Details: aqueous solutions; state of the art

COc1ccc2c3c1O[C@H]1[C@@H](O)C=C[C@H]4C(C2)N(C)CC[C@@]341 [codeine, codein phosphate hemihydrate]
pH around which solutions are relatively stable: ~3.5
